The record followed here is ChEMBL document CHEMBL1275314, “Synthesis and biological evaluation of some 1,3,4-oxadiazole derivatives” (Eur J Med Chem, 2010).

What all share (format): functional
One experiment concerns Staphylococcus aureus. In words: Antibacterial activity against Staphylococcus aureus ATCC 25923 after 3 to 4 days by serial plate dilution method.
The subject of another experiment is Klebsiella pneumoniae. In words: Antibacterial activity against Klebsiella pneumoniae after 3 to 4 days by serial plate dilution method.
In the next experiment the test system is Aspergillus fumigatus. Kind of experiment: Antifungal activity against Aspergillus fumigatus NCIM 902 after 3 to 4 days by serial plate dilution method.
Another experiment relates to Talaromyces marneffei. In words: Antifungal activity against Penicillium marneffei after 3 to 4 days by serial plate dilution method.
The subject of the next experiment is Aspergillus flavus. Kind of experiment: Antifungal activity against Aspergillus flavus NCIM 524 after 3 to 4 days by serial plate dilution method.
A further experiment relates to Escherichia coli. In words: Antibacterial activity against Escherichia coli ATCC 25922 after 3 to 4 days by serial plate dilution method.
For experiment [1], the system named is Trichophyton mentagrophytes. In words: Antifungal activity against Trichophyton mentagrophytes after 3 to 4 days by serial plate dilution method.
The subject of the next experiment is Pseudomonas aeruginosa. Kind of experiment: Antibacterial activity against Pseudomonas aeruginosa ATCC 27853 after 3 to 4 days by serial plate dilution method.
Another experiment deals with Rattus norvegicus. Kind of experiment: Antiinflammatory activity in Wister albino rat assessed as inhibition of carrageenan-induced paw edema at 10 mg/kg, po administered 30 mins before carrageenan treatment measured after 3 hrs by plethysmometric analysis. (The carrageenan paw model is a standard test of acute inflammation.)

In brackets after ≈: the same amount, converted by molar mass.

The term MIC denotes the lowest concentration found to suppress growth. Turning to `CSc1ccc(Cc2nn(CN3CCNCC3)c(=S)o2)cc1`, the minimum inhibitory concentration (MIC) against Staphylococcus aureus, in the experiment on Klebsiella pneumoniae, in the experiment with Aspergillus fumigatus, in the experiment with Talaromyces marneffei, against Aspergillus flavus and in the experiment with Escherichia coli was 12.5 µg/mL (≈ 37.1 µM) each time. In addition, the MIC (in experiment [1]; with Pseudomonas aeruginosa) was 12.5 µg/mL (≈ 37.1 µM) in each case.

On to `Cc1cc(C2CCCCC2)n(O)c(=O)c1.NCCO` [CICLOPIROX OLAMINE], for which the MIC in the experiment on Aspergillus fumigatus stood at 6.25 µg/mL; against Talaromyces marneffei, 1.56 µg/mL; in the experiment with Aspergillus flavus, 6.25 µg/mL; in experiment [1], 6.25 µg/mL.

For orientation: inhibition in vivo means the change of the read-out against control, counted positive when it falls. As to `CSc1ccc(Cc2nn(CN3CCN(c4ccc(F)cc4)CC3)c(=S)o2)cc1`, the MIC against Staphylococcus aureus, against Klebsiella pneumoniae, against Aspergillus fumigatus, against Talaromyces marneffei, against Aspergillus flavus and against Escherichia coli was 6.25 µg/mL (≈ 14.5 µM) in each case. Besides, the MIC (in experiment [1]; in the experiment on Pseudomonas aeruginosa) was 6.25 µg/mL (≈ 14.5 µM) each time. Moreover, in the experiment on Rattus norvegicus, the inhibition in vivo at 10 mg/kg amounted to 68.7%.

As to `CSc1ccc(Cc2nn(CN3CCN(C)CC3)c(=S)o2)cc1`, the MIC in the experiment on Staphylococcus aureus amounted to 12.5 µg/mL (≈ 35.7 µM); in the experiment with Klebsiella pneumoniae it was 12.5 µg/mL (≈ 35.7 µM); in the experiment with Aspergillus fumigatus it was 25 µg/mL (≈ 71.3 µM); against Talaromyces marneffei it was 25 µg/mL (≈ 71.3 µM); in the experiment on Aspergillus flavus, 25 µg/mL (≈ 71.3 µM); in the experiment with Escherichia coli, 12.5 µg/mL (≈ 35.7 µM). Besides, the MIC in [1] was 25 µg/mL (≈ 71.3 µM); in the experiment on Pseudomonas aeruginosa, 12.5 µg/mL (≈ 35.7 µM).

`O=C(O)c1cn(C2CC2)c2cc(N3CCNCC3)c(F)cc2c1=O` [CIPROFLOXACIN]: the figures for the minimal inhibitory concentration (MIC) in the experiment with Staphylococcus aureus and in the experiment with Klebsiella pneumoniae were 1.56 µg/mL (≈ 4.71 µM) and 6.25 µg/mL (≈ 18.9 µM), respectively.

As for `CC(C)Cc1ccc(C(C)c2nn(CN3CCOCC3)c(=S)o2)cc1` (stereo unspecified), the MIC against Staphylococcus aureus, against Klebsiella pneumoniae, in the experiment on Aspergillus fumigatus, against Talaromyces marneffei, in the experiment with Aspergillus flavus and in the experiment with Escherichia coli was 6.25 µg/mL (≈ 17.3 µM) throughout. For the same compound, the MIC (in experiment [1]; in the experiment with Pseudomonas aeruginosa) was 6.25 µg/mL (≈ 17.3 µM) in each case. Further, the inhibition in vivo at 10 mg/kg in the experiment with Rattus norvegicus turned out to be 69.5%.

Turning to `CSc1ccc(Cc2nn(CN3CCN(c4ccc([N+](=O)[O-])cc4)CC3)c(=S)o2)cc1`, the minimal inhibitory concentration (MIC) against Staphylococcus aureus is 6.25 µg/mL (≈ 13.7 µM); in the experiment on Klebsiella pneumoniae, 6.25 µg/mL (≈ 13.7 µM); in the experiment with Aspergillus fumigatus, 25 µg/mL (≈ 54.6 µM); against Talaromyces marneffei, 25 µg/mL (≈ 54.6 µM); against Aspergillus flavus, 25 µg/mL (≈ 54.6 µM); against Escherichia coli, 6.25 µg/mL (≈ 13.7 µM). The MIC in experiment [1] was 25 µg/mL (≈ 54.6 µM); against Pseudomonas aeruginosa it was 6.25 µg/mL (≈ 13.7 µM). Further, the inhibition in vivo at 10 mg/kg in the experiment on Rattus norvegicus is 56.6%.

Take `CC(C)Cc1ccc(C(C)c2nn(CN3CCN(C)CC3)c(=S)o2)cc1` (stereo unspecified): the MIC is 12.5 µg/mL (≈ 33.4 µM) in the experiment on Staphylococcus aureus; 12.5 µg/mL (≈ 33.4 µM) with Klebsiella pneumoniae; 25 µg/mL (≈ 66.7 µM) in the experiment on Aspergillus fumigatus; 25 µg/mL (≈ 66.7 µM) against Talaromyces marneffei; 25 µg/mL (≈ 66.7 µM) in the experiment with Aspergillus flavus; 12.5 µg/mL (≈ 33.4 µM) in the experiment with Escherichia coli. For the same compound, the MIC in [1] was 25 µg/mL (≈ 66.7 µM); against Pseudomonas aeruginosa, 12.5 µg/mL (≈ 33.4 µM).

Consider `CSc1ccc(Cc2nn(CN3CCCCC3)c(=S)o2)cc1`, for which the MIC was found to be 12.5 µg/mL (≈ 37.3 µM) against Staphylococcus aureus; 12.5 µg/mL (≈ 37.3 µM) against Klebsiella pneumoniae; 25 µg/mL (≈ 74.5 µM) with Aspergillus fumigatus; 25 µg/mL (≈ 74.5 µM) against Talaromyces marneffei; 25 µg/mL (≈ 74.5 µM) in the experiment with Aspergillus flavus; 12.5 µg/mL (≈ 37.3 µM) against Escherichia coli. Further, the MIC is 25 µg/mL (≈ 74.5 µM) in experiment [1] and 12.5 µg/mL (≈ 37.3 µM) in the experiment with Pseudomonas aeruginosa.

`CC(C)Cc1ccc(C(C)c2nn(CN3CCCCC3)c(=S)o2)cc1` (stereo unspecified): the MIC with Staphylococcus aureus, against Klebsiella pneumoniae, in the experiment on Aspergillus fumigatus, against Talaromyces marneffei, with Aspergillus flavus and in the experiment with Escherichia coli was 25 µg/mL (≈ 69.5 µM) throughout. Besides, the MIC (in experiment [1]; in the experiment on Pseudomonas aeruginosa) was 25 µg/mL (≈ 69.5 µM) in each case.

Consider `CC(C)Cc1ccc(C(C)c2nn(CN3CCNCC3)c(=S)o2)cc1` (stereo unspecified), for which the MIC in the experiment on Staphylococcus aureus, with Klebsiella pneumoniae, in the experiment on Aspergillus fumigatus, against Talaromyces marneffei, in the experiment with Aspergillus flavus and in the experiment on Escherichia coli was 12.5 µg/mL (≈ 34.7 µM) throughout. Further, the MIC (in experiment [1]; in the experiment with Pseudomonas aeruginosa) was 12.5 µg/mL (≈ 34.7 µM) each time.
